Measurements reported in US5321030A, “Creatine analogs having antiviral activity” (priority 1991, dated 1994).

Columns and labels:
[1] = system: Vesicular stomatitis virus (VSV), Indiana strain; type: cell-based; details: tested in parallel
[2] = system: HSV-1; assay: Cytopathic effect (CPE) assay, HSV-1; details: for effect on percent monolayer cell death, second set of experiments: 0-200 PFU, series of concentrations; for protective effect: no agar overlay, highest concentrations tested
[3] = target: T1, creatine kinase (Oryctolagus cuniculus, UniProt P00563); details: cited from earlier work
[4] = target: T1, creatine kinase; assay: Phosphorylation by creatine kinase, coupled assay with pyruvate kinase and LDH; type: biochemical; details: 40 mM
Procedure: Compound 5/6 (AM 361), where R=CH3, was prepared as described above and assayed for phosphorylation by creatine kinase in a coupled assay with pyruvate kinase and lactate dehydrogenase (LDH) as described (Bergmeyer, H. U., ed. (1974), In: Methods of Enzymatic Analysis, Second English Edition, Volume 4, (Verlag Chemie Weinheim and Academic Press, Inc.: New York, London) pp. 1772-1779). Each compound listed in Table 11 below was tested at a concentration of 40 mM. Compound 5/6 (AM 361) was slowly phosphorylated.

[5] = Drug cytotoxicity in CPE assay (monolayer death in absence of virus); details: monkey, vero cells
[6] = system: Guinea Pig Cytomegalovirus, Strain 22122; assay: CPE reduction assay, guinea pig cytomegalovirus in GPE cells; type: cell-based; details: 12.5 mg/ml
[7] = system: Varicella-Zoster Virus, strain Oka; assay: microbe, parasite or virus in culture; type: cell-based; details: Human alphaherpesvirus 3, MRC5, read-out: plaque reduction
[8] = system: Pseudorabies virus, Aujeszky strain; type: cell-based; details: similar assay

T1 sequence (P00563 whole entry): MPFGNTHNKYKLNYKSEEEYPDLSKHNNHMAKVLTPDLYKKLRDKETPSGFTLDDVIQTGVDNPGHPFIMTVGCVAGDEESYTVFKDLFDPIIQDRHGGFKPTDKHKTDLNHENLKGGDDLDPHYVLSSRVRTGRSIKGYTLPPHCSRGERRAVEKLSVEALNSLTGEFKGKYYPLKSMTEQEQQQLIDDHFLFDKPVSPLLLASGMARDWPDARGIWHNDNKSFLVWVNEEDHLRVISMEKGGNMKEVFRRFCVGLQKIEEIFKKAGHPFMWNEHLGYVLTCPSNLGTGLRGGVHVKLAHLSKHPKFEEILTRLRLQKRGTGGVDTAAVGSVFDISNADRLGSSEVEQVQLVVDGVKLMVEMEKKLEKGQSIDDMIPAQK

NC(=O)c1ncn([C@@H]2O[C@H](CO)[C@@H](O)[C@H]2O)n1 [Ribavirin, reference compound]
effect on the virus [1]: only a moderate effect

Nc1nccn1CC(=O)O [1-carboxymethyl-2-aminoimidazole, reference compound]
dose response against cytopathogenicity ([2]; Vero cells, 0.31-5.0 mg/ml, FIG. 16): shows no such effect
binding to creatine kinase [3]: an affinity equal to that of cyclocreatine
initial rate of phosphorylation by creatine kinase, slower [3]: 5 orders of magnitude

N=C(N)NCCC(=O)O [β-guanidinopropionate, β-guanidinopropionic acid, reference compound]
effect on percent monolayer cell death, second set of experiments ([2]; Vero cells): no dose-response or consistent protective effect
protective effect ([2]; Vero cells, 125 PFUs): weak protective effect in some wells

1-carboxymethyl-2-iminomethylimidazolidine [AM 361]
effect on cytopathic effect ([2]; 22.1 mM, Vero cells): reduced the cytopathic effect as compared with the no drug control in wells inoculated with 25 or 50 PFU/well
virus-induced monolayer death ([2]; 44.2 mM, Vero cells, each inoculum 12-200 PFU/well (no drug control 30-90%)): 2%
effect on cytopathic effect ([2]; 18.2-72.7 mM, serum-starved Vero cells, FIG. 17A): inhibited the cytopathic effect
% Rate of Creatine [4]: 2.4%
Δ in Absorbance/min [4]: 0.041

CN(CC(=O)O)C(=N)N [creatine]
activity ([2]; 70 mM, Vero cells, 125 PFUs): some activity
% Rate of Creatine [4]: 100%
Δ in Absorbance/min [4]: 1.18

C=CCN=C1NCCN1CC(=O)O [Compound 10b]
cytotoxicity at 23000 µM [5]: 7%
cytotoxicity at 45900 µM [5]: 30%
antiviral effect ([2]; 2.58-45.90 mM, Vero cells, 12-200 PFU/well): No consistent antiviral effect

CN=C1NCCN1CC(=O)O [Compound 10a]
cytotoxicity at 38200 µM [5]: 5%
effect on monolayer death ([2]; 19.1 mM, 12, 50, 100 or 200 PFU/well, not 25 PFU/well): a reduction in monolayer death

N=C1NCCN1CCC(=O)O [homocyclocreatine, 1-carboxyethyl-2-iminoimidazolidine, reference compound]
Ave. CPE [6]: 3.7
inhibition at 1000 µg/mL [7]: 36%
inhibition at 2000 µg/mL [7]: 39%
inhibition at 4000 µg/mL [7]: 50%

isoepoxycreatine [reference compound]
inactivation of creatine kinase ([3]; affinity reagent): completely and irreversibly inactivate creatine kinase

CC(CC(=O)O)C(=N)N (stereo not shown) [carbocreatine, 3-amidinobutyric acid, reference compound]
effect on percent monolayer cell death, second set of experiments ([2]; Vero cells): no dose-response or consistent protective effect
protective effect ([2]; Vero cells, 125 PFUs): weak protective effect in some wells

N=C1NCC(=O)N1CC(=O)O [Compound 7]
cytotoxicity at 41700 µM [5]: 4%
antiviral activity ([2]; 41.7 mM, Vero cells, 12-200 PFU/well): consistent antiviral activity

CN(CC(=O)O)C(=N)NP(=O)(O)O [P-creatine, N-phosphorocreatine, reference compound]
Km ([3]; reverse reaction, without cyclocreatine, read-out: Km of P-creatine): 1800 µM

Nc1ncnc2c1ncn2[C@@H]1O[C@H](CO)[C@@H](O)[C@@H]1O [adenine arabinoside]
effect against Pseudorabies virus [8]: ineffective

CCN(CC(=O)O)C(=N)N [EGA, N-ethyl-N-amidinoglycine, reference compound]
effect on percent monolayer cell death, second set of experiments ([2]; Vero cells): no dose-response or consistent protective effect
protective effect ([2]; Vero cells, 125 PFUs): weak protective effect in some wells

N=C1NCCCN1CC(=O)O [1-carboxymethyl-2-iminohexahydropyrimidine, reference compound]
effect on percent monolayer cell death, second set of experiments ([2]; Vero cells): no dose-response or consistent protective effect
protective effect ([2]; Vero cells, 125 PFUs): weak protective effect in some wells
